ChEMBL document CHEMBL5055685, “Discovery of the First Potent IDO1/IDO2 Dual Inhibitors: A Promising Strategy for Cancer Immunotherapy” (J Med Chem, 2021)
The source made the active and inactive calls. The calls are words filed in the database; no cut-off is given here.

Columns and labels:
[1] = system: Mus musculus; assay: In vivo inhibition of IDO1/IDO2 in BALB/c mouse xenografted with human HCT-116 cells assessed as downregulation of Foxp3 expression in tumor by immunohistochemical assay; assay type: functional, organism-based
[2] = system: HCT-116; assay: Antitumor immunity in BALB/c mouse xenografted with human HCT-116 cells assessed as increase in CD86 expression in CD11c+ cells by propidium iodide staining based flow cytometry analysis (reference value: 72 %); assay type: functional
[3] = target: Insulin receptor (Homo sapiens) (UniProt P06213); assay: Inhibition of IR (unknown origin) at 1 uM
[4] = Intrinsic clearance in monkey liver microsomes; assay type: ADME, Macaca mulatta, Microsome; conditions: rhesus monkey, read-out: CLH
[5] = target: Hepatocyte growth factor receptor (Homo sapiens) (UniProt P08581); assay: Inhibition of c-MET (unknown origin) at 1 uM
[6] = target: Ephrin type-B receptor 3 (Homo sapiens) (UniProt P54753); assay: Inhibition of EPHB3 (unknown origin) at 1 uM
[7] = target: CDK17/Cyclin-Y (Homo sapiens) (UniProt Q00537+Q8ND76); assay: Inhibition of CDK17/cyclin-Y (unknown origin) at 1 uM; assay type: protein-complex assay
[8] = target: Mitogen-activated protein kinase 3 (Homo sapiens) (UniProt P27361); assay: Inhibition of ERK1 (unknown origin) at 1 uM
[9] = target: Dual specificity mitogen-activated protein kinase kinase 4 (Homo sapiens) (UniProt P45985); assay: Inhibition of MKK4 (unknown origin) at 1 uM
[10] = target: Serine/threonine-protein kinase Nek4 (Homo sapiens) (UniProt P51957); assay: Inhibition of NEK4 (unknown origin) at 1 uM
[11] = target: Mitogen-activated protein kinase 8 (Homo sapiens) (UniProt P45983); assay: Inhibition of JNK1 (unknown origin) at 1 uM
[12] = target: Serine/threonine-protein kinase TAO3 (Homo sapiens) (UniProt Q9H2K8); assay: Inhibition of TAOK3 (unknown origin) at 1 uM
[13] = target: Serine/threonine-protein kinase 16 (Homo sapiens) (UniProt O75716); assay: Inhibition of STK16 (unknown origin) at 1 uM
[14] = target: Interleukin-1 receptor-associated kinase 1 (Homo sapiens) (UniProt P51617); assay: Inhibition of IRAK1 (unknown origin) at 1 uM
[15] = target: Serine/threonine-protein kinase BRSK1 (Homo sapiens) (UniProt Q8TDC3); assay: Inhibition of BRSK1 (unknown origin) at 1 uM
[16] = target: T1, Indoleamine 2,3-dioxygenase 2 (Homo sapiens, UniProt Q6ZQW0); assay: Inhibition of IDO2 (unknown origin) assessed as reduction in kynurenine formation using L-tryptophan as substrate by methylene blue reagent based assay
T1 sequence (Q6ZQW0 whole entry): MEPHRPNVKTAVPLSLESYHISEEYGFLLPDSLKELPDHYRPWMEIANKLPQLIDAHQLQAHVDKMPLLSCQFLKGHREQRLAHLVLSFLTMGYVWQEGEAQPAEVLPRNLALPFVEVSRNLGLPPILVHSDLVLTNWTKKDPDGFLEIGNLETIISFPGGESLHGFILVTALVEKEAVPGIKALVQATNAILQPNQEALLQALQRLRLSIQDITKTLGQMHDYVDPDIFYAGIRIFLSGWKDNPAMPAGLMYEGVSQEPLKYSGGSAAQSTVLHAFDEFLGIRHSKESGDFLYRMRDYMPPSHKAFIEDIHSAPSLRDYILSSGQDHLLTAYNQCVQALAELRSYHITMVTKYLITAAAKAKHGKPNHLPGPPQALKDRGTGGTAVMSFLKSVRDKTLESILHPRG

[17] = target: Casein kinase I isoform epsilon (Homo sapiens) (UniProt P49674); assay: Inhibition of CK1E (unknown origin) at 1 uM
[18] = target: Calcium/calmodulin-dependent protein kinase type 1B (Homo sapiens) (UniProt Q6P2M8); assay: Inhibition of CAMK1B (unknown origin) at 1 uM
[19] = target: MAP/microtubule affinity-regulating kinase 4 (Homo sapiens) (UniProt Q96L34); assay: Inhibition of MARK4 (unknown origin) at 1 uM
[20] = target: Serine/threonine-protein kinase 10 (Homo sapiens) (UniProt O94804); assay: Inhibition of LOK (unknown origin) at 1 uM
[21] = target: Macrophage colony-stimulating factor 1 receptor (Homo sapiens) (UniProt P07333); assay: Inhibition of FMS (unknown origin) at 1 uM
[22] = target: CDK6/cyclin D1 (Homo sapiens) (UniProt P24385+Q00534); assay: Inhibition of CDK6/cyclin-D1 (unknown origin) at 1 uM; assay type: protein-complex assay
[23] = Intrinsic clearance in human liver microsomes; assay type: ADME, Microsome; conditions: read-out: CLH
[24] = target: Tyrosine-protein kinase Mer (Homo sapiens) (UniProt Q12866); assay: Inhibition of c-MER (unknown origin) at 1 uM
[25] = Clearance in dog liver microsomes; assay type: ADME, Canis lupus familiaris, Microsome; conditions: read-out: CLH
[26] = target: G protein-coupled receptor kinase 3 (Homo sapiens) (UniProt P35626); assay: Inhibition of GRK3 (unknown origin) at 1 uM
[27] = target: LIM domain kinase 2 (Homo sapiens) (UniProt P53671); assay: Inhibition of LIMK2 (unknown origin) at 1 uM
[28] = target: Vascular endothelial growth factor receptor 1 (Homo sapiens) (UniProt P17948); assay: Inhibition of FLT1 (unknown origin) at 1 uM
[29] = target: Ribosomal protein S6 kinase alpha-3 (Homo sapiens) (UniProt P51812); assay: Inhibition of RSK2 (unknown origin) at 1 uM
[30] = target: CDK9/Cyclin K (Homo sapiens) (UniProt P50750+O75909); assay: Inhibition of CDK9/cyclin-K (unknown origin) at 1 uM; assay type: protein-complex assay
[31] = target: Serine/threonine-protein kinase Nek9 (Homo sapiens) (UniProt Q8TD19); assay: Inhibition of NEK9 (unknown origin) at 1 uM
[32] = target: Dual specificity protein kinase CLK3 (Homo sapiens) (UniProt P49761); assay: Inhibition of CLK3 (unknown origin) at 1 uM
[33] = target: CDK9/Cyclin-T2 (Homo sapiens) (UniProt P50750+O60583); assay: Inhibition of CDK9/cyclin-T2 (unknown origin) at 1 uM; assay type: protein-complex assay
[34] = target: Serine/threonine-protein kinase 24 (Homo sapiens) (UniProt Q9Y6E0); assay: Inhibition of MST3 (unknown origin) at 1 uM
[35] = target: Bone morphogenetic protein receptor type-1A (Homo sapiens) (UniProt P36894); assay: Inhibition of ALK3 (unknown origin) at 1 uM
[36] = Protein binding in Sprague-Dawley rat plasma by equilibrium dialysis; assay type: ADME, cell-free; conditions: read-out: PPB (converted)
[37] = target: Protein kinase C epsilon type (Homo sapiens) (UniProt Q02156); assay: Inhibition of PKCepsilon (unknown origin)at 1 uM
[38] = Metabolic stability in mouse liver microsomes assessed as rate constant; assay type: ADME, Microsome
[39] = target: Mitogen-activated protein kinase 13 (Homo sapiens) (UniProt O15264); assay: Inhibition of p38delta (unknown origin) at 1 uM
[40] = target: Serine/threonine-protein kinase TBK1 (Homo sapiens) (UniProt Q9UHD2); assay: Inhibition of TBK1 (unknown origin) at 1 uM

Sequence of Calcium/calmodulin-dependent protein kinase type 1B (Homo sapiens) (Q6P2M8 whole entry): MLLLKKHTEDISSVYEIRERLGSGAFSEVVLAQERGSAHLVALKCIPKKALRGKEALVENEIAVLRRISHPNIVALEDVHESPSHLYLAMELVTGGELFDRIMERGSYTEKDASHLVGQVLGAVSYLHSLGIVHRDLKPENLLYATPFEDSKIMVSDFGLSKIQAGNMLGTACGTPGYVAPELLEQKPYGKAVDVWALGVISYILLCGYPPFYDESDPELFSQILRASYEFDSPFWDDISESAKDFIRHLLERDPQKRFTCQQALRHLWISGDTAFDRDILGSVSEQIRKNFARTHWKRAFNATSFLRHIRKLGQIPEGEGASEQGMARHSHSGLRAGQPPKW
Sequence of Serine/threonine-protein kinase TAO3 (Homo sapiens) (Q9H2K8 whole entry): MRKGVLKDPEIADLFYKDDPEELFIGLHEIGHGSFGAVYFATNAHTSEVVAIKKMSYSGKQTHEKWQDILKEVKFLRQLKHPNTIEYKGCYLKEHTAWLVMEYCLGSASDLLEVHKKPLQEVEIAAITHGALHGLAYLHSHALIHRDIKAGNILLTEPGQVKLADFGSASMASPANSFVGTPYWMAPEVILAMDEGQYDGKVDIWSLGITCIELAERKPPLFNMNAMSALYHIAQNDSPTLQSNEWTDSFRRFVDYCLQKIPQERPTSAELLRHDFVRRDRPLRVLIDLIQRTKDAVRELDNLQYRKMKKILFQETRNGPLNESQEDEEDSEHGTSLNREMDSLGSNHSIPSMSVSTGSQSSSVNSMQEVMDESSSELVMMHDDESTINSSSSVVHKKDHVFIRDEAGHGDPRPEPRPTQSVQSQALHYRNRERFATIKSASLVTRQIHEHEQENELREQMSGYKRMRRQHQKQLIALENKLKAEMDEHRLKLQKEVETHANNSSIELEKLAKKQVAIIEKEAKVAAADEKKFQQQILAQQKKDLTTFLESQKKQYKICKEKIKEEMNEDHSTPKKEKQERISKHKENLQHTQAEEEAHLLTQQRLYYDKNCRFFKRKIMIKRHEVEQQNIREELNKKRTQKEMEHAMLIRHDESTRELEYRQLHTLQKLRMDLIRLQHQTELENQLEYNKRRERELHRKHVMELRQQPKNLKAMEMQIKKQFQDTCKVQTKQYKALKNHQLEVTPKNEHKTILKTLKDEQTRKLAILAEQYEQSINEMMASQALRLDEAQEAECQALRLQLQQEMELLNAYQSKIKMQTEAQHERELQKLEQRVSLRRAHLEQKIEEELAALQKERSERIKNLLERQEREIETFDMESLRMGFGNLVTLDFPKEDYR
Sequence of Mitogen-activated protein kinase 13 (Homo sapiens) (O15264 whole entry): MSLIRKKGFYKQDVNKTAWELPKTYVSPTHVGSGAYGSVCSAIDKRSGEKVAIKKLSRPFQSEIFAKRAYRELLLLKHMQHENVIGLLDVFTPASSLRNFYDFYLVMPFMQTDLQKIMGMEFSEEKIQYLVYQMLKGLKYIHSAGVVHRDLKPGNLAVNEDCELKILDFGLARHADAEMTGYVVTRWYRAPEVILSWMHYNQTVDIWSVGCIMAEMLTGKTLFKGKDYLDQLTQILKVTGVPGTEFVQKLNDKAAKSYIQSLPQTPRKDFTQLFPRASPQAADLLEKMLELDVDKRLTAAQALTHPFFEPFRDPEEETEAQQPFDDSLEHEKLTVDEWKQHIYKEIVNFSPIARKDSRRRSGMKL
Sequence of Insulin receptor (Homo sapiens) (P06213 28-758 limits assumed): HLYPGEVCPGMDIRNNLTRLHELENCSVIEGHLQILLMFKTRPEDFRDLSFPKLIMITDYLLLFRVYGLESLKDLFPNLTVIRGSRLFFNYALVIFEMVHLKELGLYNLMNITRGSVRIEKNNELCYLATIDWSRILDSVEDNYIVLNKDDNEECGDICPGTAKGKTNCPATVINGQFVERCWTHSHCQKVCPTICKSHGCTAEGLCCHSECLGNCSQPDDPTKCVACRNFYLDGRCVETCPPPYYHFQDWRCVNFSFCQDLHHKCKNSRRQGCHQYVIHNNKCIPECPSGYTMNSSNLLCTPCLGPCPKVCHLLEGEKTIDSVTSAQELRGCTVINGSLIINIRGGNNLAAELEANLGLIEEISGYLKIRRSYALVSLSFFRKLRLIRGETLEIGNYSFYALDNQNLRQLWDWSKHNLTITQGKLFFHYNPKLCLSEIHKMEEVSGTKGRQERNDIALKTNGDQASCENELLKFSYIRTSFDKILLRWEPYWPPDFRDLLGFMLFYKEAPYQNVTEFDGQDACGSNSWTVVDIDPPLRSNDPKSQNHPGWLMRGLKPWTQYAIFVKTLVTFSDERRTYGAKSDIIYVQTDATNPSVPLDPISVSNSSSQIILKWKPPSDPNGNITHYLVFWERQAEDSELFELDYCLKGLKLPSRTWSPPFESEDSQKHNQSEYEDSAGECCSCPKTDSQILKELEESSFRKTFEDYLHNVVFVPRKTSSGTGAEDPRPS
Sequence of Insulin receptor (Homo sapiens) (P06213 763-1382 limits assumed): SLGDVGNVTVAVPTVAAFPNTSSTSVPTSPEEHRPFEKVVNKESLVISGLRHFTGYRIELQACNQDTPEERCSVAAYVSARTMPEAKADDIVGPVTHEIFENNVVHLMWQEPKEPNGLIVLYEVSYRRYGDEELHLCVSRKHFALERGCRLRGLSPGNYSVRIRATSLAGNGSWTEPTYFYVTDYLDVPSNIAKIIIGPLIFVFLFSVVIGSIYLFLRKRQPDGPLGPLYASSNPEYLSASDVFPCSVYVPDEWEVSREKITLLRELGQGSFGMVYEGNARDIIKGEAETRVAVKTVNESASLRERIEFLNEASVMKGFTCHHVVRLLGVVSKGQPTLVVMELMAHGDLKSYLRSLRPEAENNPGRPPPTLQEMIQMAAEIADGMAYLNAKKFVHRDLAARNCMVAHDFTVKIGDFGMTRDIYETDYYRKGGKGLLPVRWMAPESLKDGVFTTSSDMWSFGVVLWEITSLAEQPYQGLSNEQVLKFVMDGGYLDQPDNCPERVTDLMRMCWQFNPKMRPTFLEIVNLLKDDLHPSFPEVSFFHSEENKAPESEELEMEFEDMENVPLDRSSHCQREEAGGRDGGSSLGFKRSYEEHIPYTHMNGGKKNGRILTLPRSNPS
Sequence of Dual specificity protein kinase CLK3 (Homo sapiens) (P49761 whole entry, looked up): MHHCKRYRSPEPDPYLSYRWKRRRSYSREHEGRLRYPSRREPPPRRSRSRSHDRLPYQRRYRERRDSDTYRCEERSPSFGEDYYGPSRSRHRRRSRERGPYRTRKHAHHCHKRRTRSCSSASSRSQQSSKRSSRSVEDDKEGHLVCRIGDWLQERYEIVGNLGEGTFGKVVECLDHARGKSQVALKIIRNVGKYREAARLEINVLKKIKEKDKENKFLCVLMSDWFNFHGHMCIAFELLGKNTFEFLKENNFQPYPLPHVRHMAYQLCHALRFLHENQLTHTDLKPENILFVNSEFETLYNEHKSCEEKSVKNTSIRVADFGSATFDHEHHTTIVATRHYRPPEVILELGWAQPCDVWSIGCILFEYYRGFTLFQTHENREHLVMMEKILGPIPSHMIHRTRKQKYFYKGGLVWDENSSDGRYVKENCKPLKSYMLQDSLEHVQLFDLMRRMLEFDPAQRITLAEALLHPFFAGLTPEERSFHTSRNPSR
Sequence of Serine/threonine-protein kinase Nek4 (Homo sapiens) (P51957 whole entry, looked up): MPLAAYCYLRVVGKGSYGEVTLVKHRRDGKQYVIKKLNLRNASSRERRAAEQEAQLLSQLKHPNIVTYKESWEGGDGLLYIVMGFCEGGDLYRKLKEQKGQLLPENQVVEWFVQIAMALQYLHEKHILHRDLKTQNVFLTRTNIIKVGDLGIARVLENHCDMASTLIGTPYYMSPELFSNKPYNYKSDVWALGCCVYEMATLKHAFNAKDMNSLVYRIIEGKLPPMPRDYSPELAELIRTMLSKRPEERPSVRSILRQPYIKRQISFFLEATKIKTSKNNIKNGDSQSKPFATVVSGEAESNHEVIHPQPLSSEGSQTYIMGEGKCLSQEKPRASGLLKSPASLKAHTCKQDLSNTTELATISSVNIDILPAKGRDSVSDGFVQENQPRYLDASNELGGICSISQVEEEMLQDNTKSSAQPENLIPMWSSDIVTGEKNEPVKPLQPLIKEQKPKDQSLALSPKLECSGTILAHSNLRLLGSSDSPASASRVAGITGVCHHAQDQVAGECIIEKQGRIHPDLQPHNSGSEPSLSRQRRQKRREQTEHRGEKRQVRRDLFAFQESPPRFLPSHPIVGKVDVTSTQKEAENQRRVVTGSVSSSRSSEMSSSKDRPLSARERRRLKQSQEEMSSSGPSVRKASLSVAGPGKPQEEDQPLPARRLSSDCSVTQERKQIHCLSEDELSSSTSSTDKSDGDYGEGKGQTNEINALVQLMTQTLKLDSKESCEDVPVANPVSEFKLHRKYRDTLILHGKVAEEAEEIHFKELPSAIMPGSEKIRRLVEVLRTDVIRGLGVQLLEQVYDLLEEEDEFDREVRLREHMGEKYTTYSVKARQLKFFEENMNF
Sequence of MAP/microtubule affinity-regulating kinase 4 (Homo sapiens) (Q96L34 whole entry): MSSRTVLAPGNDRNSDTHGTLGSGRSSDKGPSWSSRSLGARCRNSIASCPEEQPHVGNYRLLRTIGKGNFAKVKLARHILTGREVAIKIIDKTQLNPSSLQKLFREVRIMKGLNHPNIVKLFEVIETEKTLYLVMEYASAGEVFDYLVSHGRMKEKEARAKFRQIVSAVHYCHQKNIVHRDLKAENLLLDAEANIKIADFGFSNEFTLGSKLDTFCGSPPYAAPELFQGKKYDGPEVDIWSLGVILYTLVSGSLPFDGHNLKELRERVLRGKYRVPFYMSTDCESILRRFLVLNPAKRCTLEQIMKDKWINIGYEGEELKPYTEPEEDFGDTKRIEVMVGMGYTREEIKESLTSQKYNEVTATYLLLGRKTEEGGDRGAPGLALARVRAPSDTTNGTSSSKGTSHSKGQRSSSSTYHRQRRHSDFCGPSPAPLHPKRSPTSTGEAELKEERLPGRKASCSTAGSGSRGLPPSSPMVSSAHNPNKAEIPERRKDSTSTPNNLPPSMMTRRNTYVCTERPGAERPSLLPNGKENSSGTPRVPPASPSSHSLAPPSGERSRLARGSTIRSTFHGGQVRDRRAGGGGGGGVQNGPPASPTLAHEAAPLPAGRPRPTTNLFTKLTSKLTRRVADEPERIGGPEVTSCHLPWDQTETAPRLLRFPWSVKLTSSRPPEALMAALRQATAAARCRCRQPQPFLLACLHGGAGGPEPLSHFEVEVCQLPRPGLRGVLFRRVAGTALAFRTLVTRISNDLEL

## OCCOCc1cn(CCNc2nonc2/C(=N/O)Nc2ccc(F)c(Br)c2)nn1
[1]
  inhibition: Active
[2]
  Activity: 62.6%
[3]
  inhibition: inactive
[4]
  microsomal CLint: 36 µL/min/mg
[5]
  inhibition: inactive
[6]
  inhibition: inactive
[7]
  inhibition: inactive
[8]
  inhibition: inactive
[9]
  inhibition: inactive
[10]
  inhibition: inactive
[11]
  inhibition: inactive
[12]
  inhibition: inactive
[13]
  inhibition: inactive
[14]
  inhibition: inactive
[15]
  inhibition: inactive
[16]
  IC50: 144 nM
[17]
  inhibition: inactive
[18]
  inhibition: inactive
[19]
  inhibition: inactive
[20]
  inhibition: inactive
[21]
  inhibition: inactive
[22]
  inhibition: inactive
[23]
  microsomal CLint: 30.1 µL/min/mg
[24]
  inhibition: inactive
[25]
  microsomal CLint: 245 µL/min/mg
[26]
  inhibition: inactive
[27]
  inhibition: inactive
[28]
  inhibition: inactive
[29]
  inhibition: inactive
[30]
  inhibition: inactive
[31]
  inhibition: inactive
[32]
  inhibition: inactive
[33]
  inhibition: inactive
[34]
  inhibition: inactive
[35]
  inhibition: inactive
[36]
  fraction unbound: 0.0672
[37]
  inhibition: inactive
[38]
  K: 0.0161 min⁻¹
[39]
  inhibition: inactive
[40]
  inhibition: inactive
